# Values quoted from earlier work as cited in patent US20130225560A1, “Treatment of Cognitive Disorders with Certain Alpha-7 Nicotinic Acid Receptor Agonists in Combination with Acetylcholinesterase Inhibitors” (priority 2010, published 2013).
# Tests used:
# alpha-7 receptor [1] = biological target: T1, alpha-7 receptor (Homo sapiens, UniProt P36544)
# alpha-7 receptor [2] = biological target: T1, alpha-7 receptor; remark: listed apart in the source
# [3] = system: other nicotinic receptors
# [4] = system: murine model that exhibits aspects of schizophrenia; conditions: alone and in combination with clozapine; Hauser et al. 2009
# T1 sequence (P36544 23-502): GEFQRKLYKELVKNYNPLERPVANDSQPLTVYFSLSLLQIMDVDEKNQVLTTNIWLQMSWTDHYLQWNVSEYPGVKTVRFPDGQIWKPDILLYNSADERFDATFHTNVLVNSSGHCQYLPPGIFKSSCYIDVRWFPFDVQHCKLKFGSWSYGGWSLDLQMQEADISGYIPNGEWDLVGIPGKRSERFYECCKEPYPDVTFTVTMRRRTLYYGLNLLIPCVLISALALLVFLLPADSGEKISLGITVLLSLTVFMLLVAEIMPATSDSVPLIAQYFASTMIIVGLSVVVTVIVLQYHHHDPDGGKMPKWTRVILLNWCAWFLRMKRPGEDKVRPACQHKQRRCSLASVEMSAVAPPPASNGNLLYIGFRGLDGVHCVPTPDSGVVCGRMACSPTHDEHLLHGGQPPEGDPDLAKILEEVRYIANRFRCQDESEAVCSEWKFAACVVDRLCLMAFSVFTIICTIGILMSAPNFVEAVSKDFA
compound,measurement,setting,value
"O=C(NC1C2CCN(CC2)C1Cc1cccnc1)c1cc2ccccc2o1 (centres unmarked) [TC-5619, N-[2-(pyridin-3-ylmethyl)-1-azabicyclo[2.2.2]oct-3-yl]-1-benzofuran-2-carboxamide]",affinity for the alpha-7 receptor,alpha-7 receptor [1],very high affinity
same,agonist activity at the alpha-7 receptor,alpha-7 receptor [2],full agonist
same,activity at other nicotinic receptors,[3],little or no activity
same,"impaired pre-pulse inhibition (PPI), models positive symptoms",[4],correct impaired pre-pulse inhibition (PPI)
same,"impaired social behavior, models negative symptoms",[4],correct impaired pre-pulse inhibition (PPI) and social behavior
